# From PubChem BioAssay (NCI)
# Values joined by “and” are separate entries in the source; they are usually repeats but may differ in a detail not shown here. Identical values can stand only once.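 Cells were grown in 96-well plates and exposed to each compound for 48 hours at five concentrations; endpoints were interpolated linearly between bracketing concentrations, or set to the highest concentration if not reached. GI50 = concentration required for 50% inhibition of growth. TGI: concentration producing complete growth inhibition.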
# Legend:
# Assay in all cases: NCI anticancer screen, dose series, 48 h
# SF-295 CNS = test system: SF-295 CNS
# SF-268 CNS = test system: SF-268 CNS
# SW-620 colon = test system: SW-620 colon
# OVCAR-3 ovarian = test system: OVCAR-3 ovarian
# DU-145 prostate = test system: DU-145 prostate
# M14 melanoma = test system: M14 melanoma
# NCI/ADR-RES ovarian = test system: NCI/ADR-RES ovarian
# SF-539 CNS = test system: SF-539 CNS
# HS 578T breast = test system: HS 578T breast
# HOP-92 NSCLC = test system: HOP-92 NSCLC
Compound,TGI (SF-295 CNS) [µM],TGI (SF-268 CNS) [µM],TGI (SW-620 colon) [µM],TGI (OVCAR-3 ovarian) [µM],GI50 (DU-145 prostate) [µM],TGI (DU-145 prostate) [µM],GI50 (M14 melanoma) [µM],TGI (M14 melanoma) [µM],GI50 (SF-295 CNS),GI50 (SF-268 CNS),GI50 (NCI/ADR-RES ovarian),TGI (NCI/ADR-RES ovarian) [µM],GI50 (SF-539 CNS),TGI (SF-539 CNS) [µM],GI50 (SW-620 colon),GI50 (HS 578T breast) [µM],TGI (HS 578T breast) [µM],GI50 (OVCAR-3 ovarian),TGI (HOP-92 NSCLC) [µM],GI50 (HOP-92 NSCLC)
O=C1CCCCCCCCCCC1CN1CCCCC1 (centres undefined),> 100,> 100,> 100,> 100,–,–,–,–,–,–,–,–,–,–,–,–,–,–,–,–
N#CCN/C=C\C(=O)c1ccc(Cl)cc1,> 100,> 100,> 100,59.1,41.4,> 100,20.3,> 100,28 µM,26.7 µM,28.9 µM,79.5,27 µM,68.3,37.8 µM,37.1,> 100,17.7 µM,–,–
COc1ccc(/C=N\Nc2ccc([N+](=O)[O-])cn2)cc1OC,> 100,> 100,> 100,–,> 100,> 100,> 100,> 100,> 100 µM,> 100 µM,> 100 µM,> 100,4.37 µM,23.4,> 100 µM,21,> 100,–,–,–
CC(C)(C)C1CCC2c3c([nH]c4ccccc34)C3C(=O)N(c4ccccc4)C(=O)C3C2C1 (centres undefined),16.4,52.5,41,19.1,–,–,–,19.7,–,–,–,–,–,23.5,–,–,–,–,–,–
CC(C)(C)C(=O)OC12/C(=N/O)CCCCCC1c1ccccc12 (centres undefined),29.2,32.4,34.2,32.1,–,–,–,31.2,–,–,–,–,–,39,–,–,–,–,–,–
CC(C)C1=CC23CCC4C(C)(C(=O)O)CCCC4(C)C2CC1C1C(=O)N(c2ccccc2)C(=O)C13 (centres undefined),> 100,> 100,> 100,> 100,–,–,–,> 100,–,–,–,–,–,> 100,–,–,–,–,97.4,–
CCN(CC)CCCC(C)N=C(C1=C(C(=NC(C)CCCN(CC)CC)c2cccc(OC)c2)C(=O)NC1=O)c1cccc(OC)c1 (centres undefined),5.94,8.29,2.38,4.11,1.54,5.03,0.89,1.68,1.47 µM,1.97 µM,2.84 µM,12.2,–,–,0.71 µM,4.24,14.5,1.45 µM,3.63,0.993 µM
CCOC(=O)C(C)(C)Oc1ccc(/C=C/C(=O)c2ccc(Cl)cc2)cc1,41.2,37.1,28,30.4,–,–,–,34.7,–,–,–,–,–,34,–,–,–,–,–,–
Cc1c(C(=O)/C=C/c2ccc(N(C)C)cc2)c(=O)n(-c2ccccc2)n1C,> 100,> 100,> 100,> 100,–,–,–,–,–,–,–,–,–,> 100,–,–,–,–,> 100,–
CO[C@H](C(=O)[C@@H](O)[C@@H](C)O)[C@@H]1Cc2cc3cc(OC4CC(OC5CC(O)C(O)C(C)O5)C(O)C(C)O4)c(C)c(O)c3c(O)c2C(=O)[C@H]1OC1CC(OC2CC(OC3CC(C)(O)C(O)C(C)O3)C(O)C(C)O2)C(O)C(C)O1 (some centres undefined),–,–,–,–,–,–,–,–,0.0253 mg/L,0.0242 mg/L and 0.0192 mg/L,23 mg/L and 0.633 mg/L,–,0.0233 mg/L and 0.0157 mg/L,–,0.0264 mg/L and 0.0232 mg/L,–,–,0.0235 mg/L and 0.0222 mg/L,–,0.0278 mg/L and 0.016 mg/L
CCOC(=N)CC(=O)c1ccccc1,> 100,> 100,> 100,> 100,–,–,–,> 100,–,–,–,–,–,> 100,–,–,–,–,> 100,–
CC/C(CC(=O)CCC(=O)Nc1ccccc1[N+](=O)[O-])=N/NC(=O)C[n+]1ccccc1,> 100,> 100,> 100,> 100,–,–,–,> 100,–,–,–,–,–,> 100,–,–,–,–,> 100,–
O=[N+]([O-])CCc1cccc([N+](=O)[O-])c1,> 100,> 100,22.7,> 100,–,–,–,> 100,–,–,–,–,–,> 100,–,–,–,–,> 100,–
Cc1cc(Cl)ccc1NC(=O)C(=O)C(C(=O)c1ccc2ccccc2c1)C1OC(=O)c2ccccc21 (centres undefined),–,60.5,84.6,33.3,–,–,–,34.3,–,–,–,–,–,17.4,–,–,–,–,34.5,–
CSc1n[n+]2c(s1)SCCC2,> 100,> 100,> 100,> 100,–,–,–,> 100,–,–,–,–,–,> 100,–,–,–,–,> 100,–
CN(C)c1nc(=Nc2cccc(Cl)c2)ss1,56.5,30.4,18.8,–,–,–,–,28.4,–,–,–,–,–,32.8,–,–,–,–,49.4,–
FC(F)(F)C1(Br)C(c2ccccc2)=C1c1ccccc1,28.7,43.9,33.5,29.6,–,–,–,35,–,–,–,–,–,37,–,–,–,–,32.2,–
C=C[C@@]1(O)CCCC2=C(C(=O)OCC)CC[C@]21C,> 100,> 100,> 100,> 100,–,–,–,> 100,–,–,–,–,–,> 100,–,–,–,–,> 100,–
O=C(Cc1ccccc1)Nn1c(-c2ccccc2)nc2ccccc2c1=O,> 100,> 100,> 100,> 100,–,> 100,–,> 100,–,–,–,–,–,> 100,–,–,> 100,–,> 100,–
Cc1cc(C)c(Cn2cnc3c(Cl)ncnc32)c(C)c1CCl,> 100,> 100,> 100,53.9,–,–,99.4,> 100,> 100 µM,79.7 µM,> 100 µM,> 100,> 100 µM,> 100,92.7 µM,> 100,> 100,18.1 µM,–,–
O=Cc1ccc(-c2ccc(-c3nc4ccccc4o3)cc2)o1,85,> 100,> 100,61.9,50.1,> 100,44.1,> 100,28 µM,29.6 µM,18.3 µM,63.8,32.3 µM,> 100,33 µM,–,–,24.1 µM,–,–
